These are literature values, as cited in US10328111B2, “Water-soluble phytocannabinoid formulations” (Solva, LLC, priority 2014, dated 2019).

Each structure is given as a SMILES string.

`C=C(C)[C@@H]1CCC(C)=C[C@H]1c1c(O)cc(CCCCC)cc1O` [cannabidiol]: the oral bioavailability entry is on record as “about 6%”.
